The results in this text go back to ChEMBL document CHEMBL3603744, “Structure activity relationship of C-2 ether substituted 1,5-naphthyridine analogs of oxabicyclooctane-linked novel bacterial topoisomerase inhibitors as broad-spectrum antibacterial agents (Part-5)” (Bioorg Med Chem Lett, 2015).

Each structure is given as a SMILES string. Values after ≈ are worked out from the molar mass of the structure shown. Active and inactive are the calls of the source. No rule for the calls is given here.

The test system of assay [1] is Staphylococcus aureus. Kind of assay: Antimicrobial activity against Staphylococcus aureus Smith by micro broth dilution or agar based method. Type of assay: functional. Background: In broth dilution the organism is exposed to a series of concentrations in liquid medium.
The next assay deals with Streptococcus pneumoniae. As to the kind of experiment: Antimicrobial activity against Streptococcus pneumoniae IID553 by micro broth dilution or agar based method. Type of assay: functional.
The next assay relates to Enterococcus faecium. Kind of assay: Antimicrobial activity against vancomycin-resistant Enterococcus faecium VanA by micro broth dilution or agar based method. The format is functional.
The subject of another assay is Escherichia coli. Kind of assay: Antimicrobial activity against Escherichia coli ATCC 25922 by micro broth dilution or agar based method. Type of assay: functional.
In another assay the test system is Acinetobacter baumannii. Kind of assay: Antimicrobial activity against Acinetobacter baumannii IID876 by micro broth dilution or agar based method. The format is functional.
For the next assay, the system named is Pseudomonas aeruginosa. Kind of assay: Antimicrobial activity against Pseudomonas aeruginosa PAO1 by micro broth dilution or agar based method. Type of assay: functional.
Assay [2] concerns Staphylococcus aureus. Kind of assay: Antimicrobial activity against methicillin-resistant Staphylococcus aureus OIT971 by micro broth dilution or agar based method. Type of assay: functional, organism-based.

Regarding `CCOc1ccc2ncc(F)c(CCC34CCC(NCc5ccc6c(n5)NC(=O)CO6)(CC3)CO4)c2n1`, the MIC – broadly, the lowest concentration that inhibits growth of the organism – stood at 0.031 µg/mL (≈ 0.0611 µM) in the assay on Staphylococcus aureus [1]; 0.5 µg/mL (≈ 0.985 µM) in the assay on Streptococcus pneumoniae; 2 µg/mL (≈ 3.94 µM) against Enterococcus faecium; 4 µg/mL (≈ 7.88 µM) against Escherichia coli; 2 µg/mL (≈ 3.94 µM) against Acinetobacter baumannii; 8 µg/mL (≈ 15.8 µM) in the assay with Pseudomonas aeruginosa. Moreover, the “growth inhibition (GI)” value in the assay with Staphylococcus aureus [2] is “Active”.
Turning to `NCCOc1ccc2ncc(F)c(CCC34CCC(NCc5ccc6c(n5)NC(=O)CO6)(CC3)CO4)c2n1`, the MIC against Staphylococcus aureus [1] worked out at 0.25 µg/mL (≈ 0.478 µM); against Streptococcus pneumoniae, 0.5 µg/mL (≈ 0.957 µM); against Enterococcus faecium, 4 µg/mL (≈ 7.65 µM); against Escherichia coli, 1 µg/mL (≈ 1.91 µM); with Acinetobacter baumannii it was 1 µg/mL (≈ 1.91 µM); with Pseudomonas aeruginosa, 4 µg/mL (≈ 7.65 µM). Further, the “growth inhibition (GI)” value in the assay with Staphylococcus aureus [2] is “Active”.
Regarding `N[C@@H]1CO[C@@H]1COc1ccc2ncc(F)c(CCC34CCC(NCc5ccc6c(n5)NC(=O)CO6)(CC3)CO4)c2n1`, the MIC amounted to 0.125 µg/mL (≈ 0.221 µM) against Staphylococcus aureus [1]; 1 µg/mL (≈ 1.77 µM) in the assay on Streptococcus pneumoniae; 8 µg/mL (≈ 14.2 µM) against Enterococcus faecium; 8 µg/mL (≈ 14.2 µM) in the assay on Escherichia coli; 1 µg/mL (≈ 1.77 µM) against Acinetobacter baumannii; 32 µg/mL (≈ 56.7 µM) in the assay on Pseudomonas aeruginosa. In addition, the “growth inhibition (GI)” value in the assay on Staphylococcus aureus [2] is “Active”.
Turning to `O=C1COc2ccc(CNC34CCC(CCc5c(F)cnc6ccc(OCCCCCO)nc56)(CC3)OC4)nc2N1` [listing 1 of 2 here], the MIC in the assay with Staphylococcus aureus [1] was 0.063 µg/mL (≈ 0.111 µM); in the assay with Streptococcus pneumoniae, 1 µg/mL (≈ 1.77 µM); against Enterococcus faecium, 4 µg/mL (≈ 7.07 µM); against Escherichia coli it was 8 µg/mL (≈ 14.1 µM); in the assay on Acinetobacter baumannii it was 8 µg/mL (≈ 14.1 µM); with Pseudomonas aeruginosa, 8 µg/mL (≈ 14.1 µM).
For `N#CC1(COc2ccc3ncc(F)c(CCC45CCC(NCc6ccc7c(n6)NC(=O)CO7)(CC4)CO5)c3n2)CC1`, the MIC came out at 0.063 µg/mL (≈ 0.113 µM) with Staphylococcus aureus [1]; 1 µg/mL (≈ 1.79 µM) against Streptococcus pneumoniae; 4 µg/mL (≈ 7.16 µM) with Enterococcus faecium; 16 µg/mL (≈ 28.6 µM) in the assay with Escherichia coli; 2 µg/mL (≈ 3.58 µM) in the assay on Acinetobacter baumannii; 16 µg/mL (≈ 28.6 µM) against Pseudomonas aeruginosa. In the assay with Staphylococcus aureus [2], the “growth inhibition (GI)” value was “Active”.
As for `O=C1COc2ccc(CNC34CCC(CCc5c(F)cnc6ccc(OC7CCC7)nc56)(CC3)OC4)nc2N1`, the MIC against Staphylococcus aureus [1] came to 0.125 µg/mL (≈ 0.234 µM); in the assay with Streptococcus pneumoniae, 2 µg/mL (≈ 3.75 µM); in the assay with Enterococcus faecium it was 8 µg/mL (≈ 15 µM); against Escherichia coli, 64 µg/mL (≈ 120 µM); against Acinetobacter baumannii, 8 µg/mL (≈ 15 µM); with Pseudomonas aeruginosa, 64 µg/mL (≈ 120 µM). For the same molecule, in the assay on Staphylococcus aureus [2], the “growth inhibition (GI)” value was “Active”.
For `COc1ccc2ncc(F)c(C[C@H](O)C34CCC(NCc5ccc6c(n5)NC(=O)CO6)(CC3)CO4)c2n1` [listing 1 of 2 here], the “growth inhibition (GI)” value in the assay on Staphylococcus aureus [2] was “Active”.
Still for that read-out and setting: next, `COCCOc1ccc2ncc(F)c(CCC34CCC(NCc5ccc6c(n5)NC(=O)CO6)(CC3)CO4)c2n1` [listing 1 of 2 here]: “Active”.
In the case of `O=C1COc2ccc(CNC34CCC(CCc5c(F)cnc6ccc(OCCc7cc(=O)c(O)c[nH]7)nc56)(CC3)OC4)nc2N1`, the MIC in the assay with Staphylococcus aureus [1] was found to be 16 µg/mL (≈ 25.9 µM); against Streptococcus pneumoniae, 8 µg/mL (≈ 13 µM); against Enterococcus faecium it was 32 µg/mL (≈ 51.9 µM); in the assay with Escherichia coli it was 32 µg/mL (≈ 51.9 µM); in the assay with Acinetobacter baumannii, 32 µg/mL (≈ 51.9 µM); with Pseudomonas aeruginosa, 32 µg/mL (≈ 51.9 µM). Also, in the assay on Staphylococcus aureus [2], the “growth inhibition (GI)” value was “Active”.
Turning to `O=C1COc2ccc(CNC34CCC(CCc5c(F)cnc6ccc(OCC7(O)COC7)nc56)(CC3)OC4)nc2N1`, the minimum inhibitory concentration (MIC) in the assay on Staphylococcus aureus [1] stood at 0.125 µg/mL (≈ 0.221 µM); with Streptococcus pneumoniae it was 0.5 µg/mL (≈ 0.884 µM); in the assay on Enterococcus faecium it was 4 µg/mL (≈ 7.07 µM); in the assay with Escherichia coli it was 16 µg/mL (≈ 28.3 µM); in the assay on Acinetobacter baumannii, 4 µg/mL (≈ 7.07 µM); with Pseudomonas aeruginosa it was 32 µg/mL (≈ 56.6 µM). Besides, the “growth inhibition (GI)” value in the assay on Staphylococcus aureus [2] is “Active”.
Consider `NCCCOc1ccc2ncc(F)c(CCC34CCC(NCc5ccc6c(n5)NC(=O)CO6)(CC3)CO4)c2n1` [listing 1 of 2 here], for which the MIC against Staphylococcus aureus [1] stood at 0.25 µg/mL (≈ 0.466 µM); in the assay on Streptococcus pneumoniae it was 0.5 µg/mL (≈ 0.932 µM); with Enterococcus faecium, 4 µg/mL (≈ 7.45 µM); with Escherichia coli, 2 µg/mL (≈ 3.73 µM); against Acinetobacter baumannii, 2 µg/mL (≈ 3.73 µM); in the assay on Pseudomonas aeruginosa, 8 µg/mL (≈ 14.9 µM).
With `NCCCCOc1ccc2ncc(F)c(CCC34CCC(NCc5ccc6c(n5)NC(=O)CO6)(CC3)CO4)c2n1`, the minimum inhibitory concentration (MIC) with Staphylococcus aureus [1] was found to be 0.5 µg/mL (≈ 0.908 µM); in the assay with Streptococcus pneumoniae, 1 µg/mL (≈ 1.82 µM); against Enterococcus faecium it was 8 µg/mL (≈ 14.5 µM); with Escherichia coli it was 4 µg/mL (≈ 7.26 µM); against Acinetobacter baumannii it was 8 µg/mL (≈ 14.5 µM); against Pseudomonas aeruginosa it was 16 µg/mL (≈ 29.1 µM). Moreover, the “growth inhibition (GI)” value with Staphylococcus aureus [2] is “Active”.
Turning to `NCCCOc1ccc2ncc(F)c(CCC34CCC(NCc5ccc6c(n5)NC(=O)CO6)(CC3)CO4)c2n1` [listing 2 of 2 here], in the assay with Staphylococcus aureus [2], the “growth inhibition (GI)” value is “Active”.
With `O=C1COc2ccc(CNC34CCC(CCc5c(F)cnc6ccc(OCCO)nc56)(CC3)OC4)nc2N1` [listing 1 of 2 here], the MIC against Staphylococcus aureus [1] turned out to be 0.031 µg/mL (≈ 0.0592 µM); against Streptococcus pneumoniae, 0.25 µg/mL (≈ 0.477 µM); in the assay on Enterococcus faecium it was 1 µg/mL (≈ 1.91 µM); in the assay on Escherichia coli, 4 µg/mL (≈ 7.64 µM); against Acinetobacter baumannii, 1 µg/mL (≈ 1.91 µM); with Pseudomonas aeruginosa, 8 µg/mL (≈ 15.3 µM).
As for `COc1ccc2ncc(F)c(C[C@H](O)C34CCC(NCc5ccc6c(n5)NC(=O)CO6)(CC3)CO4)c2n1` [listing 2 of 2 here], the MIC turned out to be 0.02 µg/mL (≈ 0.0393 µM) in the assay with Staphylococcus aureus [1]; 0.05 µg/mL (≈ 0.0981 µM) in the assay with Streptococcus pneumoniae; 0.5 µg/mL (≈ 0.981 µM) against Enterococcus faecium; 2 µg/mL (≈ 3.93 µM) with Escherichia coli; 0.5 µg/mL (≈ 0.981 µM) against Acinetobacter baumannii; 8 µg/mL (≈ 15.7 µM) against Pseudomonas aeruginosa.
`O=C1COc2ccc(CNC34CCC(CCc5c(F)cnc6ccc(OCCCCCO)nc56)(CC3)OC4)nc2N1` [listing 2 of 2 here]: the “growth inhibition (GI)” value in the assay with Staphylococcus aureus [2] was “Active”.
For the molecule `O=C1COc2ccc(CNC34CCC(CCc5c(F)cnc6ccc(OC[C@H]7C[C@@H](O)[C@@H](O)C7)nc56)(CC3)OC4)nc2N1`, the MIC in the assay with Staphylococcus aureus [1] was 0.063 µg/mL (≈ 0.106 µM); in the assay on Streptococcus pneumoniae it was 0.5 µg/mL (≈ 0.842 µM); in the assay with Enterococcus faecium, 4 µg/mL (≈ 6.74 µM); in the assay with Escherichia coli, 8 µg/mL (≈ 13.5 µM); with Acinetobacter baumannii, 8 µg/mL (≈ 13.5 µM); against Pseudomonas aeruginosa, 8 µg/mL (≈ 13.5 µM). For the same molecule, the “growth inhibition (GI)” value in the assay with Staphylococcus aureus [2] is “Active”.
On to `COC(=O)[C@H]1C[C@@H]1COc1ccc2ncc(F)c(CCC34CCC(NCc5ccc6c(n5)NC(=O)CO6)(CC3)CO4)c2n1` (relative stereo), for which the MIC was 0.031 µg/mL (≈ 0.0524 µM) in the assay with Staphylococcus aureus [1]; 0.25 µg/mL (≈ 0.423 µM) against Streptococcus pneumoniae; 4 µg/mL (≈ 6.76 µM) in the assay with Enterococcus faecium; 16 µg/mL (≈ 27 µM) in the assay with Escherichia coli; 8 µg/mL (≈ 13.5 µM) in the assay on Acinetobacter baumannii; 16 µg/mL (≈ 27 µM) in the assay on Pseudomonas aeruginosa. Besides, the “growth inhibition (GI)” value with Staphylococcus aureus [2] is “Active”.
Regarding `COC(=O)[C@@H]1C[C@@H]1COc1ccc2ncc(F)c(CCC34CCC(NCc5ccc6c(n5)NC(=O)CO6)(CC3)CO4)c2n1` (relative stereo), the “growth inhibition (GI)” value with Staphylococcus aureus [2] is “Active”.
Consider `COCCOc1ccc2ncc(F)c(CCC34CCC(NCc5ccc6c(n5)NC(=O)CO6)(CC3)CO4)c2n1` [listing 2 of 2 here], for which the MIC worked out at 0.063 µg/mL (≈ 0.117 µM) in the assay with Staphylococcus aureus [1]; 1 µg/mL (≈ 1.86 µM) in the assay with Streptococcus pneumoniae; 4 µg/mL (≈ 7.44 µM) in the assay on Enterococcus faecium; 8 µg/mL (≈ 14.9 µM) with Escherichia coli; 4 µg/mL (≈ 7.44 µM) against Acinetobacter baumannii; 16 µg/mL (≈ 29.8 µM) in the assay with Pseudomonas aeruginosa.
Regarding `O=C1COc2ccc(CNC34CCC(CCc5c(F)cnc6ccc(OCCO)nc56)(CC3)OC4)nc2N1` [listing 2 of 2 here], the “growth inhibition (GI)” value in the assay on Staphylococcus aureus [2] is “Active”.
With `O=C1COc2ccc(CNC34CCC(CCc5c(F)cnc6ccc(OCCCO)nc56)(CC3)OC4)nc2N1` [listing 1 of 2 here], the MIC in the assay on Staphylococcus aureus [1] came out at 0.016 µg/mL (≈ 0.0298 µM); against Streptococcus pneumoniae, 0.25 µg/mL (≈ 0.465 µM); against Enterococcus faecium, 1 µg/mL (≈ 1.86 µM); against Escherichia coli it was 4 µg/mL (≈ 7.44 µM); in the assay with Acinetobacter baumannii, 2 µg/mL (≈ 3.72 µM); in the assay with Pseudomonas aeruginosa it was 16 µg/mL (≈ 29.8 µM).
As to `O=C1COc2ccc(CNC34CCC([C@@H](O)Cc5c(F)cnc6ccc(OCCCO)nc56)(CC3)OC4)nc2N1` [listing 1 of 2 here], in the assay on Staphylococcus aureus [2], the “growth inhibition (GI)” value was “Active”.
In the case of `O=C1COc2ccc(CNC34CCC([C@@H](O)Cc5c(F)cnc6ccc(OCCCO)nc56)(CC3)OC4)nc2N1` [listing 2 of 2 here], the MIC in the assay with Staphylococcus aureus [1] was determined as 0.125 µg/mL (≈ 0.226 µM); in the assay on Streptococcus pneumoniae, 0.5 µg/mL (≈ 0.903 µM); against Enterococcus faecium, 4 µg/mL (≈ 7.23 µM); in the assay with Escherichia coli it was 16 µg/mL (≈ 28.9 µM); with Acinetobacter baumannii, 4 µg/mL (≈ 7.23 µM); in the assay with Pseudomonas aeruginosa it was 16 µg/mL (≈ 28.9 µM).
Take `O=C1COc2ccc(CNC34CCC(CCc5c(F)cnc6ccc(OCCCO)nc56)(CC3)OC4)nc2N1` [listing 2 of 2 here]: the “growth inhibition (GI)” value in the assay on Staphylococcus aureus [2] is “Active”.
